In ChEMBL document CHEMBL5532648, “Development of a specific and potent IGF2BP1 inhibitor: A promising therapeutic agent for IGF2BP1-expressing cancers” (Eur J Med Chem, 2024):
The source made the active and inactive calls. The calls are words filed in the database; no cut-off is given here.

Legend:
[1] = biological target: T1, Insulin-like growth factor 2 mRNA-binding protein 1 (Homo sapiens, UniProt Q9NZI8); assay: Inhibition of human IGF2BP1 transfected in RKO cells incubated for 24 hrs by split-luciferase assay; format: cell-based
T1 sequence (Q9NZI8 whole entry): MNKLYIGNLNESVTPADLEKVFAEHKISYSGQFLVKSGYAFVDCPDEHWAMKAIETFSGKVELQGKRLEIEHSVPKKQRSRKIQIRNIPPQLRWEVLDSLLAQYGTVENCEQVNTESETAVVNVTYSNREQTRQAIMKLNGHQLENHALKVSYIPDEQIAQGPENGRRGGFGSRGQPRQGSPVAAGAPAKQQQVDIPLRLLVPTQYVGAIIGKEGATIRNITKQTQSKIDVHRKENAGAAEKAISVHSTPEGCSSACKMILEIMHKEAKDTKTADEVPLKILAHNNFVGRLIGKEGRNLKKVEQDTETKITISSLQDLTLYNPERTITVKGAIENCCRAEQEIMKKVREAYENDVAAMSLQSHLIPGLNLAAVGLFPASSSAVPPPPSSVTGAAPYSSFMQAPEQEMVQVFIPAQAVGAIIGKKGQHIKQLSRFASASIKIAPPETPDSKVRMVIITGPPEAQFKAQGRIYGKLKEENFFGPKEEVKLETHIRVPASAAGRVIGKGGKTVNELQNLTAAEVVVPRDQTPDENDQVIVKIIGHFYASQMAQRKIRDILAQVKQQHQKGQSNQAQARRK

[2] = system: NCI-H1299; assay: Inhibition of wound healing in human NCI-H1299 cells by IncuCyte live-cell imaging analysis; format: functional, cell-based
[3] = system: NCI-H1299; assay: Inhibition of wound healing in human NCI-H1299 cells at 1.25 to 5 uM by IncuCyte live-cell imaging analysis; format: functional, cell-based; conditions: dose 1.25-5 µM
[4] = system: HCT-116; assay: Antiproliferative activity against human HCT-116 cells; format: functional, cell-based
[5] = system: LKR-M cell; assay: Antiproliferative activity against mouse LKR-M cells transfected with GFP-IGF2BP1 at 1.25 uM; format: functional, cell-based
[6] = system: RKO; assay: Induction of apoptosis in human RKO cells; format: functional, cell-based
[7] = system: LKR-M cell; assay: Antiproliferative activity against mouse LKR-M cells transfected with GFP; format: functional, cell-based
[8] = system: NCI-H1299; assay: Antiproliferative activity against human NCI-H1299 cells; format: functional, cell-based
[9] = system: LKR-M cell; assay: Inhibition of wound healing in mouse LKR-M cells transfected with IGF2BP1 at 5 uM by IncuCyte live-cell imaging analysis; format: functional, cell-based
[10] = biological target: T1, Insulin-like growth factor 2 mRNA-binding protein 1; assay: Binding affinity to recombinant full-length human IGF2BP1 KH34 domain by MST assay
[11] = system: HCT-116; assay: Induction of apoptosis in human HCT-116 cells; format: functional, cell-based; conditions: dose 2-4 µM
[12] = system: SW480; assay: Induction of apoptosis in human SW480 cells; format: functional, cell-based; conditions: dose 2-4 µM
[13] = system: LKR-M cell; assay: Antiproliferative activity against mouse LKR-M cells transfected with GFP-IGF2BP1; format: functional, cell-based
[14] = system: SW480; assay: Inhibition of cell migration in IGF2BP1 knockout human SW480 cells at 2 uM; format: functional, cell-based
[15] = system: LKR-M cell; assay: Inhibition of wound healing in mouse LKR-M cells transfected with GFP at 5 uM by IncuCyte live-cell imaging analysis; format: functional, cell-based
[16] = system: SW480; assay: Inhibition of cell migration in human SW480 cells at 2 uM; format: functional, cell-based
[17] = system: NCI-H1299; assay: Antiproliferative activity against human NCI-H1299 cells at 1.25 to 5 uM; format: functional, cell-based; conditions: dose 1.25-5 µM

| Structure (SMILES) | inhibition [1] | IC50 [2] | other results |
| --- | --- | --- | --- |
| Cc1ccc(N2CCN(C(=O)c3ccc(Cn4cnnn4)cc3)CC2)cc1 | inactive | – | – |
| O=C(c1ccc(CN2CCCC2)cc1)N1CCN(c2ccc3c(c2)OCO3)CC1 | Active | > 100 µM | – |
| NC(=S)NCc1ccc(C(=O)N2CCCC(Nc3ccc4c(c3)OCO4)C2)cc1 (centres undefined) | Active | 30 µM | – |
| N#C[Se]Cc1ccc(C(=O)N2CCN(c3ccc4c(c3)OCO4)CC2)cc1 | inactive | – | – |
| Cc1ccc(N2CCN(C(=O)c3ccc(Cn4cc(CO)c5ccccc54)cc3)CC2)cc1 | Active | 2.5 µM | inhibition [3]: Active |
| O=C(c1ccc(CN2CCOCC2)cc1)N1CCCC(Nc2ccc3c(c2)OCO3)C1 (centres undefined) | Active | – | – |
| Cc1ccc(N2CCN(C(=O)c3ccc(CN4CCCC4)cc3)CC2)cc1 | inactive | – | – |
| O=C(c1ccc(Cn2ccnc2)cc1)N1CCCC(Nc2ccc3c(c2)OCO3)C1 (centres undefined) | Active | – | – |
| O=C(c1ccc(Cn2cncn2)cc1)N1CCN(c2ccc3c(c2)OCO3)CC1 | inactive | – | – |
| O=C(c1ccc(Cn2cncn2)cc1)N1CCCC(Nc2ccc3c(c2)OCO3)C1 (centres undefined) | Active | – | – |
| O=C(c1ccc(Cn2cnc([N+](=O)[O-])n2)cc1)N1CCCC(Nc2ccc3c(c2)OCO3)C1 (centres undefined) | Active | 20 µM | – |
| NC(=S)NCc1ccc(C(=O)N2CCN(c3ccc4c(c3)OCO4)CC2)cc1 | Active | 4.5 µM | inhibition [3]: Active |
| Cc1ccc(N2CCN(C(=O)c3ccc(C[Se]C#N)cc3)CC2)cc1 | inactive | – | – |
| O=C(c1ccc(CN2CCOCC2)cc1)N1CCN(c2ccc3c(c2)OCO3)CC1 | Active | > 100 µM | – |
| O=C(c1ccc(Cn2cnc([N+](=O)[O-])n2)cc1)N1CCN(c2ccc3c(c2)OCO3)CC1 | inactive | – | – |
| O=C(c1ccc(Cn2cc(CO)c3ccccc32)cc1)N1CCN(c2ccc3c(c2)OCO3)CC1 | – | 0.7 µM | Activity [4]: Dose-Dependent Effect; Activity [5]: Active; Activity [6]: inactive; Activity [7]: inactive; Activity [8]: Dose-Dependent Effect; inhibition [9]: Active; Kd [10]: 0.84 µM; Activity [11]: Dose-Dependent Effect; Activity [12]: Dose-Dependent Effect; Activity [13]: Dose-Dependent Effect; inhibition [14]: inactive; inhibition [3]: Active; inhibition [15]: inactive; inhibition [16]: Active; Activity [17]: Active |
| Cc1ccc(N2CCN(C(=O)c3ccc(CNC(N)=S)cc3)CC2)cc1 | inactive | – | – |
| Cc1ccc(N2CCN(C(=O)c3ccc(CN4CCOCC4)cc3)CC2)cc1 | inactive | – | – |
| O=C(c1ccc(Cn2ccnc2)cc1)N1CCN(c2ccc3c(c2)OCO3)CC1 | inactive | – | – |
| O=C(c1ccc(Cn2cnnn2)cc1)N1CCN(c2ccc3c(c2)OCO3)CC1 | inactive | – | – |
| O=C(c1ccc(Cn2cnnn2)cc1)N1CCCC(Nc2ccc3c(c2)OCO3)C1 (centres undefined) | Active | 10 µM | – |
| N#C[Se]Cc1ccc(C(=O)N2CCCC(Nc3ccc4c(c3)OCO4)C2)cc1 (centres undefined) | Active | 10 µM | inhibition [3]: Active |
| Cc1ccc(N2CCN(C(=O)c3ccc(Cn4cncn4)cc3)CC2)cc1 | inactive | – | – |
| Cc1ccc(N2CCN(C(=O)c3ccc(Cn4ccnc4)cc3)CC2)cc1 | inactive | – | – |
| O=C(c1ccc(CN2CCCC2)cc1)N1CCCC(Nc2ccc3c(c2)OCO3)C1 (centres undefined) | Active | – | – |
| Cc1ccc(N2CCN(C(=O)c3ccc(Cn4cnc([N+](=O)[O-])n4)cc3)CC2)cc1 | Active | 8 µM | inhibition [3]: Active |
